From patent US9440982B2 (Eolas Therapeutics, Inc., priority 2012, dated 2016)

What was measured:
OX1 = target: T1, OX1 (Homo sapiens, UniProt O43613); assay: Orexin receptor cell-based functional assay, [Ca2+]i by FLIPR, CHO-OX1 cells; conditions: CHO-OX1 cells, [Ca2+]i by FLIPR, antagonist dose-range 0.1 nM-10 μM, EC90 of OXA; read-out: OX1
T1 construct: expressed in transfected cells; host or cells: CHO (CHO-OX1, kept under selection antibiotic)
T1 sequence (O43613 1-425): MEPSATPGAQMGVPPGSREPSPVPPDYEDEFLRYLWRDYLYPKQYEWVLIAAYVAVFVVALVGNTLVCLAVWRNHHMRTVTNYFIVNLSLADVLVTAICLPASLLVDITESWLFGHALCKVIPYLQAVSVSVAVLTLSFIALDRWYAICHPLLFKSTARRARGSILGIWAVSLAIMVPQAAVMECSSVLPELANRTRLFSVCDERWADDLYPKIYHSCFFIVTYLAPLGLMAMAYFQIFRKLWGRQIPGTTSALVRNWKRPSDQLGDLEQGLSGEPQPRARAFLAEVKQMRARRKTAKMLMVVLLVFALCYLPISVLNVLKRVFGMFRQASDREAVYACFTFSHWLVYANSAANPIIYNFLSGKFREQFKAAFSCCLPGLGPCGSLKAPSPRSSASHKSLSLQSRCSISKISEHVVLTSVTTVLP
Outline: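 CHO cells expressing human OX1 or OX2 loaded with calcium dye plus 2.5 mM probenecid at 37° C (calcium4, 30 min, or calcium6, 2 h), then exposed to compounds (0.1 nM-10 μM) for 30 min. Intracellular Ca2+ measured on FLIPR; antagonist format.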

CYP3A4 = target: T2, CYP3A4 (Homo sapiens, UniProt P08684); assay: Cytochrome P450 inhibition assay (midazolam hydroxylation); type: in vitro ADME; conditions: human, human liver microsomes, probe midazolam (hydroxylation to 1′-hydroxymidazolam), 10 μM test compound, midazolam at approximately its Km
T2 construct: pre-incubated with human liver microsomes and NADPH; from tissue; host or cells: human liver microsomes
T2 sequence (P08684 whole entry): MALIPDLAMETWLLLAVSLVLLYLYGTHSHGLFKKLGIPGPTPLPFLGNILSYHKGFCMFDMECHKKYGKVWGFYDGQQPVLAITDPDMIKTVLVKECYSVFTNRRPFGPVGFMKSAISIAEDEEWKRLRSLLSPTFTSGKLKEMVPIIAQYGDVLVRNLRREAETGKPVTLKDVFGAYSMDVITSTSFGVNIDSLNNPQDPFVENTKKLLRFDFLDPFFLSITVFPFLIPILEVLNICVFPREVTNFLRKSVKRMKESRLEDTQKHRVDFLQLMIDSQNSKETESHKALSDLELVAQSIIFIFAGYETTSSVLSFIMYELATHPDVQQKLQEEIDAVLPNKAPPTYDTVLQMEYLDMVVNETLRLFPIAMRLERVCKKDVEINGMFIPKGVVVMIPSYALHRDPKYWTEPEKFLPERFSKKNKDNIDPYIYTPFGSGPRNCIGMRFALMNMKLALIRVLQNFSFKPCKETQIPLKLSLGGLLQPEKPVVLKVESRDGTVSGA
Outline: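 Human liver microsomes; CYP3A4 activity as midazolam 1′-hydroxylation with substrate near Km, with or without 10 μM test compound, read as percent inhibition. For time-dependent inhibition, parallel samples were preincubated 30 min with NADPH before substrate, and percent inhibition compared with non-preincubated samples.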

## C[C@@H]1CCCN(C(=O)c2cccc(F)c2-c2ncccn2)[C@@H]1CNc1ccc(C(F)(F)F)cn1 [Example A233, (3-Fluoro-2-(pyrimidin-2-yl)phenyl)((2S,3R)-3-methyl-2-(((5-(trifluoromethyl)pyridin-2-yl)amino)methyl)piperidin-1-yl)methanone]
OX1
  IC50: 5 nM
CYP3A4
  inhibition at 10 µM: 72%

## Cc1ccc(-n2nccn2)c(C(=O)N2CCC[C@@H](C)[C@H]2CNc2ncc(C#N)cc2F)c1 [Example A148, 5-Fluoro-6-((((2S,3R)-3-methyl-1-(5-methyl-2-(2H-1,2,3-triazol-2-yl)benzoyl)piperidin-2-yl)methyl)amino)nicotinonitrile]
OX1
  IC50: 83 nM
CYP3A4
  inhibition at 10 µM: 81%

## Cc1ccc(-c2cnn(C)c2)c(C(=O)N2CCC[C@@H](C)[C@H]2CNc2nc3ccccc3o2)c1 [Example A2, ((2S,3R)-2-((Benzo[d]oxazol-2-ylamino)methyl)-3-methylpiperidin-1-yl)(5-methyl-2-(1-methyl-1H-pyrazol-4-yl)phenyl)methanone]
OX1
  IC50: 61 nM
CYP3A4
  inhibition at 10 µM: 93%

## Cc1ccc(-n2nccn2)c(C(=O)N2CCC[C@@H](C)[C@H]2CNc2ncc(C(F)(F)F)cn2)n1 [Example A175, ((2S,3R)-3-Methyl-2-(((5-(trifluoromethyl)pyrimidin-2-yl)amino)methyl)piperidin-1-yl)(6-methyl-3-(2H-1,2,3-triazol-2-yl)pyridin-2-yl)methanone]
OX1
  IC50: 1 nM
CYP3A4
  inhibition at 10 µM: 33%

## Cc1ccc(-n2nccn2)c(C(=O)N2CCC[C@@H](C)[C@H]2CNc2ncc(C#N)cn2)c1 [Example A134, 2-((((2S,3R)-3-Methyl-1-(5-methyl-2-(2H-1,2,3-triazol-2-yl)benzoyl)piperidin-2-yl)methyl)amino)pyrimidine-5-carbonitrile]
OX1
  IC50: 150 nM
CYP3A4
  inhibition at 10 µM: 50%

## Cc1ccc(-n2nccn2)c(C(=O)N2CCC[C@@H](C)[C@H]2CNc2ccc(C(F)(F)F)cn2)n1 [Example A174, ((2S,3R)-3-Methyl-2-(((5-(trifluoromethyl)pyridin-2-yl)amino)methyl)piperidin-1-yl)(6-methyl-3-(2H-1,2,3-triazol-2-yl)pyridin-2-yl)methanone]
OX1
  IC50: 1 nM
CYP3A4
  inhibition at 10 µM: 51%

## Cc1ccc(-c2ccccn2)c(C(=O)N2CCC[C@@H](C)[C@H]2CNc2ncc(C(F)(F)F)cn2)n1 [Example A167, ((2S,3R)-3-Methyl-2-(((5-(trifluoromethyl)pyrimidin-2-yl)amino)methyl)piperidin-1-yl)(6′-methyl-[2,3′-bipyridin]-2′-yl)methanone]
OX1
  IC50: 5 nM
CYP3A4
  inhibition at 10 µM: 45%

## C[C@@H]1CCCN(C(=O)c2c(F)cccc2-n2nccn2)[C@@H]1CNc1ccc(Cl)cn1 [Example A261, ((2S,3R)-2-(((5-Chloropyridin-2-yl)amino)methyl)-3-methylpiperidin-1-yl)(2-fluoro-6-(2H-1,2,3-triazol-2-yl)phenyl)methanone]
OX1
  IC50: 5 nM
CYP3A4
  inhibition at 10 µM: 77%

## Cc1ccc(-c2cn[nH]c2)c(C(=O)N2CCC[C@@H](C)[C@H]2CNc2ccc(C(F)(F)F)cn2)c1 [Example A3, ((2S,3R)-3-Methyl-2-(((5-(trifluoromethyl)pyridin-2-yl)amino)methyl)piperidin-1-yl)(5-methyl-2-(1H-pyrazol-4-yl)phenyl)methanone]
OX1
  IC50: 6 nM
CYP3A4
  inhibition at 10 µM: 98%

## C[C@@H]1CCCN(C(=O)c2cccc(F)c2-n2nccn2)[C@@H]1CNc1ncc(Cl)cn1 [Example A255, ((2S,3R)-2-(((5-Chloropyrimidin-2-yl)amino)methyl)-3-methylpiperidin-1-yl)(3-fluoro-2-(2H-1,2,3-triazol-2-yl)phenyl)methanone]
OX1
  IC50: 41 nM
CYP3A4
  inhibition at 10 µM: 41%

## Cc1ccc(-n2nccn2)c(C(=O)N2CCC[C@@H](C)[C@H]2CNc2ccc(Cl)cn2)c1 [Example A78, ((2S,3R)-2-(((5-Chloropyridin-2-yl)amino)methyl)-3-methylpiperidin-1-yl)(5-methyl-2-(2H-1,2,3-triazol-2-yl)phenyl)methanone]
OX1
  IC50: 7 nM
CYP3A4
  inhibition at 10 µM: 84%

## Cc1ccc(-n2nccn2)c(C(=O)N2CCC[C@@H](C)[C@H]2CNc2ncc(F)cn2)c1 [Example A171, ((2S,3R)-2-(((5-Fluoropyrimidin-2-yl)amino)methyl)-3-methylpiperidin-1-yl)(5-methyl-2-(2H-1,2,3-triazol-2-yl)phenyl)methanone]
OX1
  IC50: 370 nM
CYP3A4
  inhibition at 10 µM: 36%

## C[C@@H]1CCCN(C(=O)c2cc(F)c(F)cc2-n2nccn2)[C@@H]1CNc1ccc(C(F)(F)F)cn1 [Example A249, (4,5-Difluoro-2-(2H-1,2,3-triazol-2-yl)phenyl)((2S,3R)-3-methyl-2-(((5-(trifluoromethyl)pyridin-2-yl)amino)methyl)piperidin-1-yl)methanone]
OX1
  IC50: 18 nM
CYP3A4
  inhibition at 10 µM: 83%

## Cc1nc(C(=O)N2CCC[C@@H](C)[C@H]2CNc2ncc(Cl)cn2)c(-c2ccc(F)cc2)s1 [Example A41, ((2S,3R)-2-(((5-Chloropyrimidin-2-yl)amino)methyl)-3-methylpiperidin-1-yl)(5-(4-fluorophenyl)-2-methylthiazol-4-yl)methanone]
OX1
  IC50: 4 nM
CYP3A4
  inhibition at 10 µM: 52%

## COc1ccnc(-c2ccc(C)cc2C(=O)N2CCC[C@@H](C)[C@H]2CNc2ccc(C(F)(F)F)cn2)n1 [Example A21, (2-(4-Methoxypyrimidin-2-yl)-5-methylphenyl)((2S,3R)-3-methyl-2-(((5-(trifluoromethyl)pyridin-2-yl)amino)methyl)piperidin-1-yl)methanone]
OX1
  IC50: 13 nM
CYP3A4
  inhibition at 10 µM: 89%

## Cc1ccc(-n2ncc(C)n2)c(C(=O)N2CCC[C@@H](C)[C@H]2CNc2ccc(C(F)(F)F)cn2)c1 [Example A112, ((2S,3R)-3-Methyl-2-(((5-(trifluoromethyl)pyridin-2-yl)amino)methyl)piperidin-1-yl)(5-methyl-2-(4-methyl-2H-1,2,3-triazol-2-yl)phenyl)methanone]
OX1
  IC50: 2 nM
CYP3A4
  inhibition at 10 µM: 84%

## Cc1ccc(-n2nccn2)c(C(=O)N2CCC[C@@H](C)[C@H]2CNc2ncc3cc(Br)ccc3n2)c1 [Example A122, ((2S,3R)-2-(((6-Bromoquinazolin-2-yl)amino)methyl)-3-methylpiperidin-1-yl)(5-methyl-2-(2H-1,2,3-triazol-2-yl)phenyl)methanone]
OX1
  IC50: 96 nM
CYP3A4
  inhibition at 10 µM: 72%

## Cc1ccc(-n2cc(C)cn2)c(C(=O)N2CCC[C@@H](C)[C@H]2CNc2ccc(C(F)(F)F)cn2)c1 [Example A107, ((2S,3R)-3-Methyl-2-(((5-(trifluoromethyl)pyridin-2-yl)amino)methyl)piperidin-1-yl)(5-methyl-2-(4-methyl-1H-pyrazol-1-yl)phenyl)methanone]
OX1
  IC50: 4 nM
CYP3A4
  inhibition at 10 µM: 91%

## Cc1ccc(-c2cnn(C(C)C)c2)c(C(=O)N2CCC[C@@H](C)[C@H]2CNc2ccc(C(F)(F)F)cn2)c1 [Example A111, (2-(1-Isopropyl-1H-pyrazol-4-yl)-5-methylphenyl)((2S,3R)-3-methyl-2-(((5-(trifluoromethyl)pyridin-2-yl)amino)methyl)piperidin-1-yl)methanone]
OX1
  IC50: 17 nM
CYP3A4
  inhibition at 10 µM: 96%

## C[C@@H]1CCCN(C(=O)c2cc(Cl)ccc2-c2ncccn2)[C@@H]1CNc1ncc(C(F)(F)F)cn1 [Example A201, (5-Chloro-2-(pyrimidin-2-yl)phenyl)((2S,3R)-3-methyl-2-(((5-(trifluoromethyl)pyrimidin-2-yl)amino)methyl)piperidin-1-yl)methanone]
OX1
  IC50: 4 nM
CYP3A4
  inhibition at 10 µM: 38%

## C[C@@H]1CCCN(C(=O)c2cc(F)ccc2-n2nccn2)[C@@H]1CNc1ccc(C(F)(F)F)nn1 [Example A208, (5-Fluoro-2-(2H-1,2,3-triazol-2-yl)phenyl)((2S,3R)-3-methyl-2-(((6-(trifluoromethyl)pyridazin-3-yl)amino)methyl)piperidin-1-yl)methanone]
OX1
  IC50: 200 nM
CYP3A4
  inhibition at 10 µM: 59%

## Cc1ccc(-n2nccn2)c(C(=O)N2CCC[C@@H](C)[C@H]2CNc2cccc(C)n2)c1 [Example A79, ((2S,3R)-3-Methyl-2-(((6-methylpyridin-2-yl)amino)methyl)piperidin-1-yl)(5-methyl-2-(2H-1,2,3-triazol-2-yl)phenyl)methanone]
OX1
  IC50: 310 nM
CYP3A4
  inhibition at 10 µM: 5%

## Cc1cccc(-c2ncccn2)c1C(=O)N1CCC[C@@H](C)[C@H]1CNc1ncc(C(F)(F)F)cn1 [Example A307, ((2S,3R)-3-Methyl-2-(((5-(trifluoromethyl)pyrimidin-2-yl)amino)methyl)piperidin-1-yl)(2-methyl-6-(pyrimidin-2-yl)phenyl)methanone]
OX1
  IC50: 250 nM
CYP3A4
  inhibition at 10 µM: 46%
